Measured values published in publication PMC10454913, “Neurohypophysial and paracrine vasopressinergic signaling regulates aquaporin trafficking to hydrate marine teleost oocytes” (Frontiers in Endocrinology, 2023).
Bridge positions count the residues as written; N and C are the ends. Ends that are not written are not given here.

Experiments:
seabream Avpr2aa = assay: Activation of seabream Avpr2aa in transfected HEK293T cells (pCRE-luc / pSRE-luc reporters, Fluo-4 AM Ca2+); assay type: cell-based, gilthead seabream (Sparus aurata); conditions: for effect on Avpr2aa activation: antagonist 10^-12 to 10^-5 M before 10^-8 M Avp
[1] = test system: seabream ovarian follicles; assay: In vitro incubation of isolated seabream ovarian follicles (immunostaining, 3H2O uptake, co-immunoprecipitation); assay type: cell-based, gilthead seabream (Sparus aurata); conditions: for Avp-mediated increase in phosphorylation of Aqp1ab1 and Aqp1ab2 and binding of Aqp1ab2 to YwhazLb: 10 µM inhibitor plus 10 µM Avp; for Avp-induced differential localization of Aqp1ab1 and Aqp1ab2 in the oocyte microvilli: 10 µM inhibitor preincubated prior to 10 µM Avp
Protocol: To investigate the physiological significance of the Avp regulation of the […] channel trafficking in seabream oocytes, we determined the dynamics of the subcellular localization of endogenous Aqp1aa, Aqp1ab1, and Aqp1ab2, and their interactions with YwhazLa and -zLb proteins, after Avp treatment in vitro, using the Aqp1ab1- and Aqp1ab2-specific antisera and commercial mammalian YWHAZ antibodies specific for seabream YwhazLa/b or -zLb ([12]). For this, we incubated isolated seabream vitellogenic ovarian follicles with Avp, in the presence or absence of the seabream Avpr1aa and Avpr2aa antagonist TLV or the PKA inhibitor H89, while control follicles were exposed to DMSO vehicle alone ( Figure 8 ).
In other experiments, groups of fully-grown postvitellogenic ovarian follicles (n = 10), manually isolated from the ovary, were incubated with 10 µM Avp in the same culture medium as above, in the presence or absence of 10 µM of the receptor antagonist TLV, or with 0.1% DMSO (controls) for 6 h at 18°C. After incubation, follicles were fixed for immunofluorescence microscopy, frozen in liquid nitrogen and stored at -80°C for further protein extraction, or processed for water uptake assays using radiolabeled water as previously described ([12]).
Isolated ovarian follicles were processed for immunofluorescence microscopy as previously described ([65], [66]). Control sections were incubated with antibodies (1:400 dilution) preadsorbed with the corresponding peptides used for immunization (for aquaporin antibodies), or with the Avp or Oxt synthetic peptides. Secondary antibodies were sheep anti-rabbit IgG Cy3 (Merck #C2306) or goat anti-chicken IgY Alexa Fluor 488 (Invitrogen #A11039) at a 1:1,000 dilution. Sections were counterstained with DAPI (1:10,000), and mounted with Fluoromount™ Aqueous Mounting Medium (Merck #F4680). Immunofluorescence was observed and documented with a Zeiss Axio Imager Z1/Apotome fluorescent microscope (Carl Zeiss Corp.). Changes in Aqp1ab1 and Aqp1ab2 in the oocyte plasma membrane after Avp treatment were evaluated using the ImageJ software v.1.52o (https://imagej.nih.gov/ij/) as previously described ([12]).
X. laevis oocytes and seabream follicles (n = 10) were homogenized in the lysis buffer from the Pierce™ Crosslink Magnetic IP/Co-IP Kit (Pierce Thermo Fisher Scientific, #88805) with a bouncer on ice, and centrifuged at 14,000 × g for 1 min. An aliquot (10%) of the protein extract was collected as “input” and mixed with 2 × Laemmli sample buffer, whereas the remaining extract was incubated overnight at 4°C under constant agitation with magnetic beads previously coated with anti-Aqp1ab1 or anti-Aqp1ab2 antibodies. For rabbit primary antibodies, the immunoprecipitation was carried out using the kit indicated above, and final eluted proteins in 50 µl of elution buffer were mixed with 4 × Laemmli sample buffer supplemented with protease and phosphatase inhibitors. For chicken antibodies, the immunoprecipitation was performed using Dynabeads™ M-280 Tosylactivated (Invitrogen Thermo Fisher Scientific, #14203) following the manufacturer’s instructions. The input and immunoprecipitated samples were immunoblotted as indicated above.

seabream Oxtrb = seabream Oxtrb (Sparus aurata, UniProt R9WVY7); assay: Activation of seabream Oxtrb in transfected HEK293T cells (pCRE-luc / pSRE-luc reporters, Fluo-4 AM Ca2+); assay type: cell-based, gilthead seabream (Sparus aurata); conditions: for effect on Oxtrb activation: antagonist 10^-12 to 10^-5 M before 10^-8 M Oxt
[2] = test system: X. laevis oocytes expressing the seabream Avpr2aa and Aqp1aa, Aqp1ab1 or Aqp1ab2 plus YwhazLb; assay: Swelling assay (osmotic water permeability, P f) of X. laevis oocytes expressing Avpr2aa and TSA1C aquaporins; assay type: cell-based
[3] = test system: X. laevis oocytes expressing the seabream Avpr1aa and Aqp1aa, Aqp1ab1 or Aqp1ab2 plus YwhazLb; assay: Swelling assay (osmotic water permeability, P f) of X. laevis oocytes expressing Avpr1aa and TSA1C aquaporins; assay type: cell-based
seabream Avpr1aa = seabream Avpr1aa (Sparus aurata, UniProt R9X0I6); assay: Activation of seabream Avpr1aa in transfected HEK293T cells (pCRE-luc / pSRE-luc reporters, Fluo-4 AM Ca2+); assay type: cell-based, gilthead seabream (Sparus aurata); conditions: for IC50: antagonist 1 h before 10^-8 M Avp, HEK293T, read-out: IC50, inhibition of Avpr1aa activation
[4] = test system: seabream postvitellogenic ovarian explants; assay: Avp production by ovarian explants in vitro (Avp ELISA); assay type: cell-based, gilthead seabream (Sparus aurata)
From the text: These observations would be compatible with a role of Avp regulating the intracellular trafficking of Aqp1ab1 and Aqp1ab2 in maturing oocytes, as observed in surrogate amphibian oocytes. […] To test this hypothesis, we carried out in vitro experiments in which the production of Avp by postvitellogenic ovarian explants in response to piscine single-chain recombinant […] evaluated by a custom made Avp enzyme-linked immunosorbent assay (ELISA) ( Supplementary Figure S3 ). To investigate the specificity of the rLh potential regulation, in these experiments we also tested the effect of single-chain recombinant follicle-stimulating hormone (rFsh). […] Pieces of the ovary at the […] stage (400-500 mg) were dissected from naturally spawning seabream females and placed in Petri dishes containing 75% Leivovitz L-15 culture medium with L-glutamine and 100 μg/ml gentamicin at pH 7.5. […] Control groups were treated with an equivalent volume of the cell culture medium used for […] production, or with 0.5% ethanol. After incubation, explants were frozen and stored at -80°C until Avp extraction and determination by ELISA. To determine the Avp levels in ovarian explants incubated in vitro, a competitive ELISA was developed using the specific anti-Avp antiserum and the synthetic Avp to create the standard curve ( Supplementary Figure S3 ). For this, polystyrene ELISA microtiter plates (F96 Maxisorp Nunc Immuno Plates; […] Ovarian explants were homogenized on ice with a glass dounce tissue homogenizer in water containing 0.25% glacial acetic acid in a proportion of 500 μl/100 mg tissue. After incubation of the homogenate at 100°C for 5 min, the samples were centrifuged a 10,000 × g for 5 min at 4°C, and the supernatant recovered in a new tube. […] Absorbance was read at 450 nm with a VICTOR3TM Multilabel Plate Reader (PerkinElmer, Inc.). […] The intra-assay coefficient of variation was 4.64% (calculated by assaying eight replicates of an ovarian sample at 50% of maximum binding on the same plate), whereas the inter-assay coefficient of variation was 8.35%.

[5] = molecular target: seabream oxytocin receptor Oxtrb (gilthead seabream (Sparus aurata))
[6] = molecular target: seabream arginine vasopressin receptor Avpr1aa (gilthead seabream (Sparus aurata))
[7] = molecular target: seabream arginine vasopressin receptor Avpr1aa (gilthead seabream (Sparus aurata)); remark: listed apart in the source
[8] = 10 µM Avp, co-immunoprecipitation and immunoblotting

COc1cc(OC2CCN(C(C)=O)CC2)ccc1C(=O)N1CCC(N2C(=O)OCc3ccccc32)CC1 [L-371,257, 1-(1-[4-[(N-acetyl-4-piperidinyl)oxy]-2-methoxybenzoyl]piperidin-4-yl)-4H-3,1-benzoxazin-2(1H)-one]
effect on Avpr2aa activation (seabream Avpr2aa): no effect

CYIQNCPRG-NH2 (ends and bridges not checked) [Avp]
EC50 (seabream Avpr2aa; Avp on Avpr2aa, HEK293T, read-out: approximate EC50 on cognate receptor): ~10 nM
PKC activation (pSRE-luc) (seabream Avpr2aa; HEK293T cells expressing Avpr2aa): not activated
pCRE-induced luciferase activity (cAMP) (seabream Avpr2aa; HEK293T cells expressing Avpr2aa, 10^-12 to 10^-5 M): potent dose-dependent response
intracellular Ca2+ concentration ([Ca2+]i) (seabream Avpr2aa; HEK293T cells expressing Avpr2aa, Fluo-4 AM): not affected
meiotic maturation or oocyte hydration ([1]; 10 µM Avp, 6 h, 18°C): did not induce
phosphorylation of Aqp1ab1 [1, 8]: more phosphorylated
phosphorylation of Aqp1ab2 [1, 8]: increased
localization of Aqp1aa (follicular epithelium) ([1]; 10 µM Avp, immunofluorescence): did not appear to change
localization of Aqp1ab1 immunoreactivity ([1]; 10 µM Avp, immunofluorescence): more concentrated in the most distal part of the microvilli
localization of Aqp1ab2 channel ([1]; 10 µM Avp, immunofluorescence): localized in a more basal region of the microvilli
water permeability of follicles (3H2O uptake) ([1]; not told): higher
intracellular Ca2+ concentration ([Ca2+]i) (seabream Oxtrb; HEK293T cells expressing Oxtrb, Fluo-4 AM): only a slight increase
P f ([2]; oocytes co-expressing Avpr2aa and Aqp1aa, 10 µM Avp): did not change
increase in P f ([2]; oocytes expressing Avpr2aa + Aqp1ab1, 10 µM Avp): ~ 2 fold
increase in P f ([2]; oocytes expressing Avpr2aa + Aqp1ab2+YwhazLb, without FSK pretreatment, 10 µM Avp): ~ 4 fold
reduction of P f ([3]; oocytes expressing Avpr1aa + Aqp1aa, 10 µM Avp, 3 h): 80%
oocyte P f triggered by FSK exposure ([3]; oocytes expressing Avpr1aa + Aqp1ab2 (+YwhazLb), 10 µM Avp, 10 µM FSK): did not affect
pCRE-mediated luciferase activity (cAMP) (seabream Avpr1aa; HEK293T cells expressing Avpr1aa): did not induce measurable increases
pSRE-induced luciferase activity (PKC activation) (seabream Avpr1aa; HEK293T cells expressing Avpr1aa, 10^-12 to 10^-5 M, 3 h): concentration-dependent increase
intracellular Ca2+ concentration ([Ca2+]i) (seabream Avpr1aa; HEK293T cells expressing Avpr1aa, Fluo-4 AM): concentration-dependent increase

C=C[C@]12CCC(=O)C=C1CC[C@H]1[C@@H]3CC[C@H](C(C)=O)[C@@]3(C)CC[C@@H]12 [OD 02-0, 10-ethenyl-19-norprogesterone]
Avp synthesis in ovarian explants in the absence of 17,20β-P ([4]; 10 µM, ~20 h): not reproduced

CN1CCCC1CCn1cc(C2=C(c3c[nH]c4ccccc34)C(=O)NC2=O)c2ccccc21 (centres unmarked) [Bim-II, bisindolylmaleimide II]
Avp-induced inhibition of P f ([3]; Avpr1aa+Aqp1aa oocytes preincubated with 10 µM inhibitor 1 h before 10 µM Avp): prevented

Cc1ccccc1C(=O)Nc1ccc(C(=O)N2CCCC(O)c3cc(Cl)ccc32)c(C)c1 (centres unmarked) [TLV, 7-Chloro-5-hydroxy-1-[2-methyl-4-(2-methylbenzoyl-amino)benzoyl]-2,3,4,5-tetrahydro-1H-1-benzazepine]
effect on Avpr2aa activation (seabream Avpr2aa): inhibited
potency at blocking Avpr2aa relative to SR49059 (seabream Avpr2aa; antagonist before 10^-8 M Avp): ~ 10 times more potent
water permeability of follicles (3H2O uptake) in the presence of Avp plus inhibitor ([1]; 10 µM Avp plus 10 µM inhibitor): reduced
Avp-mediated increase in phosphorylation of Aqp1ab1 and Aqp1ab2 and binding of Aqp1ab2 to YwhazLb [1]: blocked
Avp-induced differential localization of Aqp1ab1 and Aqp1ab2 in the oocyte microvilli [1]: prevented
effect on Oxtrb activation (seabream Oxtrb): not affected
IC50 (seabream Avpr1aa): ~1 nM

CC#C[C@]1(O)CC[C@H]2[C@@H]3CCC4=CC(=O)CCC4=C3[C@@H](c3ccc(N(C)C)cc3)C[C@@]21C [RU486]
17,20β-P-induced increase in Avp synthesis ([4]; 100 µM inhibitor with 0.1 µg/ml 17,20β-P): completely abolished

C[C@@H](O)[C@@]1(O)CC[C@H]2[C@@H]3CCC4=CC(=O)CC[C@]4(C)[C@H]3CC[C@@]21C [17,20β-P, 17α,20β-dihydroxypregn-4-en-3-one]
increase in Avp synthesis in ovarian explants ([4]; 0.1 µg/ml, ~20 h): 3 fold

O=S(=O)(NCCNC/C=C/c1ccc(Br)cc1)c1cccc2cnccc12 [H89]
Avp-mediated increase in phosphorylation of Aqp1ab1 and Aqp1ab2 and binding of Aqp1ab2 to YwhazLb [1]: blocked
Avp-induced differential localization of Aqp1ab1 and Aqp1ab2 in the oocyte microvilli [1]: prevented
water permeability of follicles (3H2O uptake) in the presence of Avp plus inhibitor ([1]; not told): reduced
positive effect of Avp on plasma membrane trafficking of wild-type Aqp1ab1 and Aqp1ab1-S156A [2]: equally abolished
Avp-induced insertion of Aqp1ab1 or Aqp1ab2 into the oocyte plasma membrane / P f increase ([2]; Avpr2aa oocytes, 10 µM inhibitor 1 h before 10 µM Avp): prevented

COc1ccc(S(=O)(=O)N2c3ccc(Cl)cc3[C@](O)(c3ccccc3Cl)[C@@H]2C(=O)N2CCC[C@H]2C(N)=O)cc1OC [SR49059]
effect on Avpr2aa activation (seabream Avpr2aa): inhibited
effect on Oxtrb activation (seabream Oxtrb): not affected
IC50 (seabream Avpr1aa): ~1 nM

CYISNCPIG-NH2 (disulfide 1-6; ends not checked) [oxytocin (Oxt, formerly isotocin), synthetic nonapeptide]
EC50 of receptor activation (pSRE-luciferase activity and [Ca2+]i) in HEK293T cells expressing Oxtrb, Oxt 10^-12 to 10^-5 M [5]: 1e-08 M
EC50 of cross-activation of Avpr1aa by Oxt in HEK293T cells (Figure 4D), against that of Avp (fold (EC50 of Oxt over EC50 of Avp)) [6]: 10

CYIQNCPRG-NH2 (disulfide 1-6; ends not checked) [arginine vasopressin (Avp, formerly vasotocin), synthetic nonapeptide]
EC50 of receptor activation (pSRE-luciferase activity and [Ca2+]i) in HEK293T cells expressing Avpr1aa, Avp 10^-12 to 10^-5 M [7]: 1e-08 M
EC50 of PKC (pSRE-luciferase) activation and [Ca2+]i increase in HEK293T cells, Avp on Avpr1aa against Oxt on Oxtrb ([6]; scale: fold): 10
